ChEMBL document CHEMBL1201862, “PubChem BioAssay data set” (2004)
Calls of active or inactive are those of the source.

Key:
[1] = insulin promoter down-regulators in MIN6 cells, imaging, high-content screening, mouse beta cells (AID 1628); type: functional
[2] = cytotoxicity toward NIH3T3 fibroblasts, dose response, counter-screen, cell-based, ATP luminescence, mouse fibroblasts (AID 2010); type: functional;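 also: cells exposed to compound for about 90 hours before reading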
[3] = cytotoxicity in MIN6 insulinoma cells, dose response, cytotoxicity control, cell-based, mouse insulinoma (AID 2122); type: functional;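 also: confirmatory high-throughput counterscreen run to flag cytotoxic compounds; mouse MIN-6 beta cells carrying an insulin promoter eGFP reporter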
[4] = HepG2 cell cytotoxicity, dose response, cytotoxicity control for Shn3 inhibitor project, CellTiter-Glo, cherry-picked (AID 624134); type: functional, cell-based
[5] = inhibitors of intracellular T. cruzi replication, confirmation, NIH3T3 host cells, beta-gal luminescence (AID 2044); type: functional, cell-based;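 also: intracellular parasites grown in NIH/3T3 mouse fibroblasts as host cells; luminescent beta-galactosidase reporter signal from transgenic T. cruzi replicating inside host cells; inhibitors lower the luminescence signal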
[6] = Shn3 3'UTR reporter inhibitors, dose response, cell-based, Clone20 osteoblasts, firefly luciferase, cherry-picked (AID 624132); type: functional;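 also: firefly luciferase luminescence from reporter carrying the Shn3 3'UTR in osteoblasts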
[7] = control 3'UTR Renilla luciferase suppression, dose response, counter-screen for Shn3 inhibitor project, cell-based, Clone20-Shn3RL, cherry-picked (AID 624133); type: functional
[8] = target: DNA dC->dU-editing enzyme APOBEC-3G (Homo sapiens, UniProt Q9HC16); type: functional;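 also: Dose-response counterscreen measuring inhibition of APOBEC3G DNA deaminase activity, run while confirming APOBEC3A inhibitors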
[9] = target: DNA dC->dU-editing enzyme APOBEC-3A (Homo sapiens, UniProt P31941); assay: Dose Response confirmation of small molecule APOBEC3A DNA Deaminase Inhibitors via a fluorescence-based single-stranded DNA deaminase assay. [Related pubchem assays (depositor defined):AID493011, AID493024]; type: functional
Coagulation factor XII = target: T1, Coagulation factor XII (Homo sapiens, UniProt P00748); assay: FXIIa inhibitor potency, concentration-response, biochemical (AID 716); type: functional
T1 sequence (P00748 whole entry): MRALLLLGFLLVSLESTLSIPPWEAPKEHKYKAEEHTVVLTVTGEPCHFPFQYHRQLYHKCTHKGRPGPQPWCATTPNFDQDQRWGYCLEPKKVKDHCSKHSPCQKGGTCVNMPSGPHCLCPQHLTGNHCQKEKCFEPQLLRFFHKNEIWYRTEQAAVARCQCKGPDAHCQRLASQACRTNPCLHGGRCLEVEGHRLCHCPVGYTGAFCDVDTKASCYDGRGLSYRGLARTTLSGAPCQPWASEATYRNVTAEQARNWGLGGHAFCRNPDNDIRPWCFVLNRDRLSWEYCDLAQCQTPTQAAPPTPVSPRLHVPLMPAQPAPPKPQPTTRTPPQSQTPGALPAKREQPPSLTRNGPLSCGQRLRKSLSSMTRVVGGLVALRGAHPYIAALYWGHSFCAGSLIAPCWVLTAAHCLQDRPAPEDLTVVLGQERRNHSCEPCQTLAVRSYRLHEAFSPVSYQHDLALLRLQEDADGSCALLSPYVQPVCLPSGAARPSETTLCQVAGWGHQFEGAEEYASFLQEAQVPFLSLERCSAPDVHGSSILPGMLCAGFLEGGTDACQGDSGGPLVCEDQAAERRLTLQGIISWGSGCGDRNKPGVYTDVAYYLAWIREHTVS

[10] = target: Melanin-concentrating hormone receptor 1 (Homo sapiens, UniProt Q99705); assay: Fluorescence-based counterscreen for antagonists of the G-protein coupled receptor 7 (GPR7): cell-based high throughput dose response assay to identify antagonists of the melanin-concentrating hormone receptor 1 (MCHR1).; type: functional
Vero [11] = assay: Vero cell cytotoxicity, cytotoxicity control for flavivirus capping enzyme inhibitors (AID 588742); type: functional; conditions: Chlorocebus sabaeus
[12] = target: Glucose-6-phosphate 1-dehydrogenase (Homo sapiens, UniProt P11413); assay: human G6PD enzyme inhibitors, dose response, selectivity assay for P. falciparum G6PD inhibitor project, biochemical, fluorescence (AID 504792); type: functional
Genome polyprotein = Genome polyprotein (dengue virus type 2, UniProt P29990); assay: Dengue-2 NS5 methyltransferase inhibitors, primary screen, biochemical, confirmation dose response (AID 588689); type: functional
[13] = target: T2, Type-1 angiotensin II receptor (Homo sapiens, UniProt P30556); assay: AT1 receptor antagonists, dose response, selectivity assay for APJ receptor antagonist project, cell-based, uHTS hits (AID 463214); type: functional;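 also: antagonist potency against angiotensin II stimulated AT1 response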
T2 sequence (P30556 whole entry): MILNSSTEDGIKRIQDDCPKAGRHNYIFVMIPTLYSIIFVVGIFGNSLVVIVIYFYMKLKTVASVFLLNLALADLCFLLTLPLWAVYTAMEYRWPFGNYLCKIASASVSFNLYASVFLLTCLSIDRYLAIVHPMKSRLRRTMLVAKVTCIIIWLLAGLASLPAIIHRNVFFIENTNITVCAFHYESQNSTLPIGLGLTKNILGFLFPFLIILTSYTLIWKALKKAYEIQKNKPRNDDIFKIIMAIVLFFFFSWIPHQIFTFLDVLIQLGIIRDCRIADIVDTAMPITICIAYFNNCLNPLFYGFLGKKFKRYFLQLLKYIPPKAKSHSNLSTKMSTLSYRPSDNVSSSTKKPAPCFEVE

Streptococcus = assay: Group A Streptococcus viability loss, dose response, counter-screen for streptokinase expression inhibitor project, luminescence, BacTiterGlo (AID 1915); type: functional, organism-based;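 also: potency for reduction of bacterial viability or growth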
Fatty acid synthase [14] = target: T3, Fatty acid synthase (Homo sapiens, UniProt P49327); assay: FAS thioesterase domain inhibitors, dose response, biochemical, kinetic fluorescence intensity (AID 624326); type: functional;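 also: rate of fluorescence rise from hydrolysis of a fluorogenic O-methyl fluorescein ester substrate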
[15] = system: Streptococcus sp. 'group A'; assay: growth inhibition of control SK(-) GAS strain, dose response, counter-screen for streptokinase expression inhibitor project, luminescence, kanamycin, BacTiterGlo, confirmation (AID 1900); type: functional, organism-based
Fatty acid synthase [16] = target: T3, Fatty acid synthase; assay: FAS thioesterase domain inhibitors, dose response, biochemical, endpoint fluorescence intensity, uHTS hits (AID 624327); type: functional;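 also: fluorescence from hydrolysis of an O-methyl fluorescein acyl ester substrate by the enzyme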
Streptokinase A = target: T4, Streptokinase A (Streptococcus pyogenes serotype M1, UniProt P10520); assay: S. pyogenes streptokinase expression inhibitors, potency, dose response, plasminogen activation absorbance, OD405 (AID 1914); type: functional, Streptococcus pyogenes M1 GAS;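 also: secreted streptokinase activity via plasminogen activation per viability signal from cell pellet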
T4 sequence (P10520 whole entry): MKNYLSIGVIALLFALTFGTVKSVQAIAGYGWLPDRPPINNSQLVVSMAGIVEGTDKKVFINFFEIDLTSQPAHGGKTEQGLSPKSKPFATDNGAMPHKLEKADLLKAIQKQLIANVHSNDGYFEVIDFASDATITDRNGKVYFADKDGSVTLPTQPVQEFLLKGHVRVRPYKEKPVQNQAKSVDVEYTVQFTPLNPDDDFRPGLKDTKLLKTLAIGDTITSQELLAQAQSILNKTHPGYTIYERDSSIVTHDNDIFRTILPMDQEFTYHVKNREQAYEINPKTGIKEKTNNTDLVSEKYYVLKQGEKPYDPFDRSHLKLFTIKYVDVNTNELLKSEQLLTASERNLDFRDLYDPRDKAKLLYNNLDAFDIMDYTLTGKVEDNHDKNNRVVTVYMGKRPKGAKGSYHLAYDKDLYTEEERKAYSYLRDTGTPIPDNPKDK

Beta-galactosidase = Beta-galactosidase (Escherichia coli, UniProt Q8VNN2); assay: PubChem AID 485352; type: functional
[17] = Luminescence Cell-Based Dose Retest to Confirm Inhibitors of Cancer Stem Cells. [Related pubchem assays (depositor defined):AID2717, AID2721]; type: functional; conditions: Homo sapiens
Vero [18] = assay: host cell cytotoxicity of antiviral hits, dose response, cytotoxicity control for West Nile virus antiviral project, secondary assay (AID 1650); type: functional; conditions: Chlorocebus sabaeus
HEK293 [19] = assay: NOD2 signaling inhibitors in MDP-stimulated cells, cell-based, uHTS, luminescence (AID 2001); type: functional; conditions: Homo sapiens
HEK293 [20] = assay: cells; type: functional, cell-based; conditions: Homo sapiens
HEK293 [21] = assay: NOD1 signaling inhibitors, primary screen, cell-based, luminescence, uHTS (AID 1578); type: functional; conditions: Homo sapiens
HEK293 [22] = assay: cells; type: functional, cell-based; conditions: Homo sapiens; remark: listed apart in the source
[23] = cytotoxicity in HEK-293T cells, dose response, cytotoxicity control for TCR NF-kB inhibitor project, luminescence, T-cell screen hits (AID 489026); type: functional, cell-based;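 also: cells exposed to compound about 14 hours before the viability readout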
cells = type: functional
[24] = HepG2 cell cytotoxicity, dose response, cytotoxicity control for non-replicating M. tuberculosis project (AID 489018); type: functional; conditions: Mycobacterium tuberculosis
Paired box protein Pax-8 = Paired box protein Pax-8 (Homo sapiens, UniProt Q06710); assay: inhibitors of PAX8-driven TPO luciferase reporter, dose response, RMG-I cells, cherry-pick (AID 687027); type: functional, cell-based;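 also: luciferase reporter driven by Pax8 target thyroperoxidase promoter measured by SteadyGlo luminescence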
[25] = THP-1 cell cytotoxicity, dose response, cytotoxicity control for non-replicating M. tuberculosis project (AID 489025); type: functional
[26] = Vero E6 cell cytotoxicity, dose response, cytotoxicity control for non-replicating M. tuberculosis project, secondary assay (AID 492998); type: functional, VeroE6; conditions: Vero C1008
Vero [27] = assay: cells; type: functional, cell-based; conditions: Chlorocebus sabaeus

Chain of DNA dC->dU-editing enzyme APOBEC-3G (Q9HC16 whole entry): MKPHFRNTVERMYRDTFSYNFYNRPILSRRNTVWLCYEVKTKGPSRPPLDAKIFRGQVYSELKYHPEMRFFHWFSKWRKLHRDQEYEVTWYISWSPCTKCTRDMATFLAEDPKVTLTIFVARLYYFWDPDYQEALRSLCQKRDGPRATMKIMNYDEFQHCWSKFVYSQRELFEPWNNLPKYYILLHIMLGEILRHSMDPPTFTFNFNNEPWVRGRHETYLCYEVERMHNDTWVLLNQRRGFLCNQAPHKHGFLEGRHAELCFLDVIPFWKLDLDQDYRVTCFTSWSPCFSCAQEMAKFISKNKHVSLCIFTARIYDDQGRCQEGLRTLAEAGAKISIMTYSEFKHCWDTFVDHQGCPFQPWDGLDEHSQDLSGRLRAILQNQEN
Chain of DNA dC->dU-editing enzyme APOBEC-3A (P31941 whole entry): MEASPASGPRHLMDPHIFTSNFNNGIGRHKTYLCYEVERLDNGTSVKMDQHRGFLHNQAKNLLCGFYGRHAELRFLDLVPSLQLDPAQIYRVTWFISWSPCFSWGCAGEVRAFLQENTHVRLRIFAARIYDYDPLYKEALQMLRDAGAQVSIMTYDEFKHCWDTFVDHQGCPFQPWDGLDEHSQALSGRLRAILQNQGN
T3 sequence (P49327 whole entry, the tested form may be a part): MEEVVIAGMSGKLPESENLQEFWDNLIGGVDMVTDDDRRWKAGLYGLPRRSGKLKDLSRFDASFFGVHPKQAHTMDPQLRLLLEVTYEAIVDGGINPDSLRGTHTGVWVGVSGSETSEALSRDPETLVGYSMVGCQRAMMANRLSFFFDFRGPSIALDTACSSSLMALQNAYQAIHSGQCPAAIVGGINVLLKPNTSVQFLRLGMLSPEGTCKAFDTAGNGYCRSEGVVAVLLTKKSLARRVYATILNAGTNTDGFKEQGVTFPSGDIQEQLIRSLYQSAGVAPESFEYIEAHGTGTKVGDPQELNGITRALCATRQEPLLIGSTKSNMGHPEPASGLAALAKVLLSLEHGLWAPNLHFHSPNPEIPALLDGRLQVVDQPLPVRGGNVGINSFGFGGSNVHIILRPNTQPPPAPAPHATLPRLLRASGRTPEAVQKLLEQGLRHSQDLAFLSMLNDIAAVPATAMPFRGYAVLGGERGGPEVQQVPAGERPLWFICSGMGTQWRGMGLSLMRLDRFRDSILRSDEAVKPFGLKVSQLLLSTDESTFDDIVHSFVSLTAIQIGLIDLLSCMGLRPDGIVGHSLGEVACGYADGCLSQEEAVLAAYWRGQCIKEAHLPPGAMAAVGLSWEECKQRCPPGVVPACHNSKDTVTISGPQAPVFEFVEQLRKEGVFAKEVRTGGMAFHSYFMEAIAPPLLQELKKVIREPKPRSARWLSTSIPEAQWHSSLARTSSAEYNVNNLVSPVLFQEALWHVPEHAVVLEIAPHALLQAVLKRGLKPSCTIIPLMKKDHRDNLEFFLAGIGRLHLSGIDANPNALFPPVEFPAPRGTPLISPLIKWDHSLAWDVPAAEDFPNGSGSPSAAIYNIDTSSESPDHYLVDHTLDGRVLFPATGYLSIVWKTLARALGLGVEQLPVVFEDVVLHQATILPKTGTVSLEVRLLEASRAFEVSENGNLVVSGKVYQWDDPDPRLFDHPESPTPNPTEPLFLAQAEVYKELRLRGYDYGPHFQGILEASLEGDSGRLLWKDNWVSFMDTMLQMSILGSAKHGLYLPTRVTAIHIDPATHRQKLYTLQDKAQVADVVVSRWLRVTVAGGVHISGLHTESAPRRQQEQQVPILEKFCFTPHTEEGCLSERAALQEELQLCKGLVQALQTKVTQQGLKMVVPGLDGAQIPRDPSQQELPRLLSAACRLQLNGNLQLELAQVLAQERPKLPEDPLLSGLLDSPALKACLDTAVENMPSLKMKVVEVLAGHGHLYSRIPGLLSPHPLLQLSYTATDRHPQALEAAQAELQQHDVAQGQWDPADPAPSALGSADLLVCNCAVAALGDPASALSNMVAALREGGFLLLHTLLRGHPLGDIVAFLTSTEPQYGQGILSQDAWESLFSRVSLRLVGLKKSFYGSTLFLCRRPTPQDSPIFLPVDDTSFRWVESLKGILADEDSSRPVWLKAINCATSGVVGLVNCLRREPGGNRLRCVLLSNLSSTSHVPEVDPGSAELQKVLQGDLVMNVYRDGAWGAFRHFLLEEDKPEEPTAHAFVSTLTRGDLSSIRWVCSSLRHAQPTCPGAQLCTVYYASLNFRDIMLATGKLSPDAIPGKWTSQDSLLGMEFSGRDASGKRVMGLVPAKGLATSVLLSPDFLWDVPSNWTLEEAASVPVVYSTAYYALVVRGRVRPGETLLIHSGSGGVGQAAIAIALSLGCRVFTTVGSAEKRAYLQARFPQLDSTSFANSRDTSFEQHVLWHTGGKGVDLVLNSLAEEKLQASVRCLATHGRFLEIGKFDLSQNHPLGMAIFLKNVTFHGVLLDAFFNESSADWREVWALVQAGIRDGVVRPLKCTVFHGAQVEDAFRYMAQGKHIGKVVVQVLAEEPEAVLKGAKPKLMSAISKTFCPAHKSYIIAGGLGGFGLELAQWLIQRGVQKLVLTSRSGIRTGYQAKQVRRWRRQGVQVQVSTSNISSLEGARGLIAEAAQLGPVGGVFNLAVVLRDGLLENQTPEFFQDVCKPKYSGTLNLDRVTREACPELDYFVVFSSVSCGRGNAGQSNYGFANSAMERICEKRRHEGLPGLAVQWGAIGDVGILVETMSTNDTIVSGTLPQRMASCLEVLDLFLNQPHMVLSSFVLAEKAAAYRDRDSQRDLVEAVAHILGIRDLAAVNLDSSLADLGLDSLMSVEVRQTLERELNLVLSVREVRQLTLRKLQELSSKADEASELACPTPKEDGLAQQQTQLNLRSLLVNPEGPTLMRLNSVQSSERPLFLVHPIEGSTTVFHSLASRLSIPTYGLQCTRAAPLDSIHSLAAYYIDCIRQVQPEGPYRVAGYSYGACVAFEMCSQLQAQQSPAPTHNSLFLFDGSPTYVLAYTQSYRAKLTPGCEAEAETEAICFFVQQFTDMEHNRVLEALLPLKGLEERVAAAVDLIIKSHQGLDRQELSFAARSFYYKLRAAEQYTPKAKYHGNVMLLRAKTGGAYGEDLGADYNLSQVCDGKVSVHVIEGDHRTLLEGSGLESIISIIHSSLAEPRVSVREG
Chain of Glucose-6-phosphate 1-dehydrogenase (P11413 whole entry): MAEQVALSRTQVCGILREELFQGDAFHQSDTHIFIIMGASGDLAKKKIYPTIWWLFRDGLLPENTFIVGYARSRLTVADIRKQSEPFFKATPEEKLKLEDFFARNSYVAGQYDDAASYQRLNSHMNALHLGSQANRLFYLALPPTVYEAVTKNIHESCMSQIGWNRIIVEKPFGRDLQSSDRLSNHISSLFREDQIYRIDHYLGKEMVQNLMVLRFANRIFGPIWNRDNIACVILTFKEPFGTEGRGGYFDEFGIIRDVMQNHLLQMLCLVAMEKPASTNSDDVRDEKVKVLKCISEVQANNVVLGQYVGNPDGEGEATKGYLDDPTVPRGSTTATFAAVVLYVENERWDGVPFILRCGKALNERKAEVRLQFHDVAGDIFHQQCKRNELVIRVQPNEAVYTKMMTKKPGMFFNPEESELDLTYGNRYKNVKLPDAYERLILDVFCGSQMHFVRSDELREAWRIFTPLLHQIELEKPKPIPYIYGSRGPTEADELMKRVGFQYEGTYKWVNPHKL
Chain of Beta-galactosidase (Q8VNN2 whole entry): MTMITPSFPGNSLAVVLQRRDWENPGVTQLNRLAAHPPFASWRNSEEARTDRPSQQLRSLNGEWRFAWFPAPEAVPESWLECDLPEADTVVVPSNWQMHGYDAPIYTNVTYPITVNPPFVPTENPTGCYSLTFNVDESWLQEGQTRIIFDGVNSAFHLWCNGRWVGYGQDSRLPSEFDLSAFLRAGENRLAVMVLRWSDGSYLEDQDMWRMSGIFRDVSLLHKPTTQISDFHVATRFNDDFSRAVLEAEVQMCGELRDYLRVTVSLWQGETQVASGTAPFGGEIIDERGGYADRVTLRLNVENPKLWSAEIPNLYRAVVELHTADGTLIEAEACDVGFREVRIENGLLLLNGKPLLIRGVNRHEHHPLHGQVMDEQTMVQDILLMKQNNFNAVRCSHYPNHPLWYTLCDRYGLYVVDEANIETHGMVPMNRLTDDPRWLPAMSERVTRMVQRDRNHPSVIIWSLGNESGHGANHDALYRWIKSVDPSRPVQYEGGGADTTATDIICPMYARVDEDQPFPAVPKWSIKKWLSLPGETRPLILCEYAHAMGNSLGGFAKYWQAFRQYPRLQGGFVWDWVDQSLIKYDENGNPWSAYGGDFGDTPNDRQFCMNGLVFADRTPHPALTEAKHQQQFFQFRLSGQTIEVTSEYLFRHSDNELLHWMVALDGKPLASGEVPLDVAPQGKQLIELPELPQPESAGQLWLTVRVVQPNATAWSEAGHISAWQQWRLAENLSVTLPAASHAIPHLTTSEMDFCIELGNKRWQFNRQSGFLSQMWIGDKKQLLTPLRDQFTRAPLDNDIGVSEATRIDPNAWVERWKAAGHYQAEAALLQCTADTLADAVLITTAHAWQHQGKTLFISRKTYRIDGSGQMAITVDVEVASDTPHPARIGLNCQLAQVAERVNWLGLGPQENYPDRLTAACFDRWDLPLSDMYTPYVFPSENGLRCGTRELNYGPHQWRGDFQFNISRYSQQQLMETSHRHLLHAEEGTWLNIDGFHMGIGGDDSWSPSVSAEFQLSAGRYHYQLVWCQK
Chain of Paired box protein Pax-8 (Q06710 whole entry): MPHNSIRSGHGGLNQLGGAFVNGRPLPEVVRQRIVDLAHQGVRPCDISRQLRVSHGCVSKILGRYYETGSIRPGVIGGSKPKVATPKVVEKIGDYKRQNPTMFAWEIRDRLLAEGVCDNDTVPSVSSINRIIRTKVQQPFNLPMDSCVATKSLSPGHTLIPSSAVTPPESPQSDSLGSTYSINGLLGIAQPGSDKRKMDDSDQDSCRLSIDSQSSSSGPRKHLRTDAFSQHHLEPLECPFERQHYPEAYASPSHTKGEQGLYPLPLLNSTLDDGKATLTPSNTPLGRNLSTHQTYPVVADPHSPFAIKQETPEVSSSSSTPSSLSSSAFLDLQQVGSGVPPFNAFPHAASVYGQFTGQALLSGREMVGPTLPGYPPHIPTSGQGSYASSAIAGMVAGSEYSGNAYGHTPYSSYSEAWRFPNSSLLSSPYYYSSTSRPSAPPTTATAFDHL

CC(C)(C)c1ccc(CN(Cc2ccccc2)C(c2ccccn2)c2nnnn2C(C)(C)C)cc1 (centres undefined)
IC50 [1]: 3.07 µM (active) | EC50 [2]: > 60 µM (not active) | IC50 [3]: 3.84 µM (active) | AC50 [4]: 67.9 µM (active) | EC50 [5]: 1.76 µM (active) | AC50 [6]: 13.5 µM (active) | AC50 [7]: 24.2 µM (active)

CCN1CCN(c2ccc(S(=O)(=O)N3CCOCC3)cc2NC(=O)C(C)Oc2ccc(Cl)cc2)CC1 (centres undefined)
IC50 [8]: 14.7 µM (active) | IC50 [9]: 9.56 µM (active)

CC(=O)NCC(=O)OCC(=O)Nc1ccc(C(C)=O)cc1
IC50 (Coagulation factor XII): > 50 µM (inactive)

CCOC(=O)N1CCC(N(C(=O)Nc2ccc(Cl)c(Cl)c2)C(C)CC)CC1 (centres undefined)
IC50 [1]: 2.7 µM (active) | IC50 [3]: 2.45 µM (active)

Cc1cc([N+](=O)[O-])cc(C)c1OCC(=O)N/N=C/c1ccc(OC(=O)c2ccccc2)cc1
IC50 [10]: > 43.8 µM (not active)

CN1CCCN(S(=O)(=O)c2ccccc2)CC1
IC50 [8]: 5.93 µM (active) | IC50 [9]: 4.85 µM (active)

CCOC(=O)/C(CCCN(CC)CC)=N\O
IC50 [8]: 1.26 µM (active) | IC50 [9]: 1.35 µM (active)

CC(=O)OCCCNc1cc(Sc2nc3ccccc3s2)c2nonc2c1[N+](=O)[O-]
CC50 (Vero [11]): 16.8 µM (active) | IC50 [12]: > 80 µM (inactive) | IC50 (Genome polyprotein): > 100 µM (active) | IC50 [13]: 2.06 µM (active) | EC50 [2]: 4.76 µM (active) | EC50 (Streptococcus): 3.7 µM (active) | AC50 [4]: 24.4 µM (active) | IC50 (Fatty acid synthase [14]): 1.35 µM (active) | EC50 [5]: 1.38 µM (active) | EC50 [15]: 3.26 µM (active) | IC50 (Fatty acid synthase [16]): 2.08 µM (active) | AC50 [6]: 4.7 µM (active) | AC50 [7]: 11.3 µM (active) | EC50 (Streptokinase A): > 150 µM (not active) | EC50 (Beta-galactosidase): > 40 µM (inactive)

CC(=O)[C@@]1(O)C(C)CC2C3C=C(C)C4=Cc5c(cnn5-c5ccccc5)C[C@]4(C)C3C(O)C[C@@]21C (some centres undefined)
IC50 [1]: < 0.25 µM (active) | EC50 (Streptococcus): > 150 µM (not active) | IC50 [3]: > 16 µM (inactive) | AC50 [17]: 1.15 µM (active) | EC50 [15]: 5.57 µM (active) | CC50 (Vero [18]): > 100 µM (active) | EC50 (Streptokinase A): 2.97 µM (active)

O=C(Nc1ccc(Cc2ccncc2)cc1)c1ccc(S(=O)(=O)N2CCCC2)cc1
IC50 (HEK293 [19]): 5.81 µM (active) | IC50 (HEK293 [20]): 4.59 µM (active) | EC50 (HEK293 [21]): 2.66 µM (active) | IC50 (HEK293 [22]): 13.6 µM (active) | IC50 [23]: 33.4 µM (inactive)

Nn1c(SCC(=O)Nc2ccc3c(c2)OCCO3)nnc(CCC(=O)O)c1=O
IC50 [8]: 8.47 µM (active) | IC50 [9]: 9.11 µM (active)

O=C(CCC1COc2ccccc2O1)NCc1ccco1 (centres undefined)
IC50 (Coagulation factor XII): > 50 µM (inactive)

O=C(c1ccco1)N1CCN(S(=O)(=O)c2ccc(Oc3ccccc3)cc2)CC1
IC50 (Coagulation factor XII): > 50 µM (inactive)

O=C(NC12CC3CC(CC(C3)C1)C2)c1ccc([N+](=O)[O-])o1
IC50 (cells): 7.14 µM (active) | EC50 (Streptococcus): 7.69 µM (active) | AC50 [17]: 5.23 µM (active) | CC50 [24]: 10.4 µM (active) | EC50 [15]: 1.2 µM (active) | AC50 (Paired box protein Pax-8): 4.39 µM (active) | CC50 [25]: 12.4 µM (active) | EC50 (Streptokinase A): > 150 µM (not active) | CC50 [26]: 14.6 µM (active)

CCOc1ccccc1C=NNC(=O)CCCCC(=O)NN=Cc1ccccc1OCC
IC50 [12]: > 80 µM (inactive)

COc1ccc(-n2c(Cc3cccs3)nnc2SCC(=O)Nc2ccc3c(c2)OCCO3)cc1
IC50 (Coagulation factor XII): > 50 µM (inactive)

CC(C)(C)c1ccc(C(=O)NC(=S)Nc2sc3c(c2C#N)CCC3)cc1
IC50 (Vero [27]): > 25 µM (active)

Oc1nc(-c2ccccn2)nc2ccccc12
IC50 (cells): 3.56 µM (active) | CC50 [24]: > 20 µM (active) | CC50 [25]: > 40 µM (active) | CC50 [26]: 19.6 µM (active)
